From patent US20030100769A1, “Cyclic amidine compounds” (priority 2000, published 2003)

Assays:
[1] = biological target: α1β1γδ subtype of nicotinic acetylcholine receptors (Rattus norvegicus, UniProt P18916+P25108+P25109+P25110); assay: biochemical; assay type: binding; settings: for remaining activity at 100 µM: read-out: control % of [3H]-α-Bgt binding at 100 μM of test compound; for remaining activity at 1000 µM: read-out: control % of [3H]-α-Bgt binding at 1,000 μM of test compound
Source text: The methods for evaluating the binding capabilities of the compounds at nicotinic acetylcholine receptors are different by subtypes of receptors. The binding capabilities of the compounds at α4β2 nicotinic acetylcholine receptors are examined using rat brain membrane obtained from whole homogenized brain, and determining the inhibiting rate of the compounds against [^3H]-cytisine binding to said brain membrane. Furthermore, the binding capabilities of the compounds at α1β1γδ nicotinic acetylcholine receptors are examined using homogenized rat muscle, and determining the inhibiting rate of the compounds against [^3H]-α-bungarotoxin binding to said muscle homogenate.
Binding Assays at α1β1γδ Subtype of Nicotinic Acetylcholine Receptors
The affinity of the compounds of the present invention to α1β1γδ subtype of nicotinic acetylcholine receptors was measured by the following method, which was modified method described by Garcha H. S., Thomas P., Spivak C.
(1) Preparation of Rat Skeletal Muscles Containing α1β1γδ Subtype of Nicotinic Acetylcholine Receptors
The substantially same animals described in the Biological Experiment 1 were used.
The isolation of α1β1γδ subtype of nicotinic acetylcholine receptors was performed as follow. That is, rat posterior skeletal muscles were isolated just after sacrificed by decapitation, washed with ice-cooled saline solution and then frozen at −80° C. with liquid nitrogen and stored till using. After thawing the frozen muscles, tissue was homogenized ([…]) with buffer solution [2.5 mM of sodium phosphate buffer (pH:7.2), 90 mM of NaCl, 2 mM of KCl, 1 mM of EDTA, 2 mM of benzamidine, 0.1 mM of benzethonium chloride, 0.1 mM of PMSF, 0.01% of sodium azide] in Waring blender (Waring blender 34BL97; WARING PRODUCTS DIVISION DYNAMICS CORPORATION OF AMERICA) for 60 seconds. The homogenate were centrifuged under 20,000×G for 60 minutes at 4° C. The supernatant was separated and the resulting pellet was added to the same buffer (1.5 ml/g wet weight), and homogenized under the same conditions. Triton X100 (2% w/v) was added and the mixture was stirred for 3 hours at 4° C. The centrifugation at 100,000×G for 60 minutes at 4° C. yielded the rat muscle extract as supernatant. This was stored at 4° C. for up to 4 weeks, and used for binding assays at receptors.
(2) Experiments of α1β1γδ Subtype of Nicotinic Acetylcholine Receptors Binding
Receptors binding experiments were performed as follow. That is, the extract of rat muscle containing 600-900 μg of protein was added to test tubes containing test compounds and incubated for 15 minutes at 37° C. Then, to this mixture was added 1 nM of [^3H]-α-bungarotoxin (α-Bgt) and further incubated for 2 hours. The samples were isolated by vacuum filtration onto Whatman GF/B filters, which were prerinsed with 0.5% polyethylenimine just prior to sample filtration, using Brandel multi manifold cell harvester. The filters were rapidly rinsed with washing solution (10 mM of KH2PO4, 150 mM of NaCl, pH 7.2, room temperature) (5×1 ml). The filters were counted in 3 ml of clearsol I (Nacalai Tesque Inc.). The determination of nonspecific binding was incubated in the presence of 1 μM α-Bgt. […] In the receptor binding experiments, said buffer solution was added for adjusting the final concentration of BSA to be 0.05%.
The analyses of the experimental results were conducted by the same way as described in the Biological Experiment 1.

[2] = biological target: T1, human α4β2 subtype of nicotinic acetylcholine receptors (Homo sapiens, UniProt P17787+P43681); assay: Agonist activities at human α4β2 subtype of nicotinic acetylcholine receptors expressed in Xenopus oocytes (membrane potential holding method); assay type: cell-based; settings: for EC50: held at −50 mV, calculated in comparison with the reaction with 10 μM acetylcholine (100%), read-out: Agonist activity (ED50)
T1 construct: expressed in transfected cells; host or cells: Xenopus laevis oocytes injected with hnACh-R α4 and β2 cRNA (pSP64 polyA)
T1 sequence (P43681 29-627 limits assumed): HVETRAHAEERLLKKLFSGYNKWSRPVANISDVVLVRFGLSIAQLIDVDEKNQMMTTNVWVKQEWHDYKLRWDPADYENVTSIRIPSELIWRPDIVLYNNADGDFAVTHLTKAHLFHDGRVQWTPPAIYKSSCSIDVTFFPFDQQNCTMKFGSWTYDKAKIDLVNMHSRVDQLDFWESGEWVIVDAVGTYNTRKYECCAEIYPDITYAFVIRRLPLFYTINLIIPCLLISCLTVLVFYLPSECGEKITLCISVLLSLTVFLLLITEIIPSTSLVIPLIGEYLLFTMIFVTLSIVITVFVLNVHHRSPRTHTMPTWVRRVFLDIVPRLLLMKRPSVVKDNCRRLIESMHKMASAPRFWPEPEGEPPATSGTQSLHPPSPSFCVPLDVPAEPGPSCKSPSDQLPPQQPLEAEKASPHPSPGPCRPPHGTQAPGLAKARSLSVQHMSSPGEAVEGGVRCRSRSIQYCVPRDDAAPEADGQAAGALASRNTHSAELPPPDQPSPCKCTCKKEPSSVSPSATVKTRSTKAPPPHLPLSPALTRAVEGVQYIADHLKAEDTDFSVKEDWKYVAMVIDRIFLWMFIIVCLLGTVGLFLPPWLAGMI
T1 sequence (P17787 26-502): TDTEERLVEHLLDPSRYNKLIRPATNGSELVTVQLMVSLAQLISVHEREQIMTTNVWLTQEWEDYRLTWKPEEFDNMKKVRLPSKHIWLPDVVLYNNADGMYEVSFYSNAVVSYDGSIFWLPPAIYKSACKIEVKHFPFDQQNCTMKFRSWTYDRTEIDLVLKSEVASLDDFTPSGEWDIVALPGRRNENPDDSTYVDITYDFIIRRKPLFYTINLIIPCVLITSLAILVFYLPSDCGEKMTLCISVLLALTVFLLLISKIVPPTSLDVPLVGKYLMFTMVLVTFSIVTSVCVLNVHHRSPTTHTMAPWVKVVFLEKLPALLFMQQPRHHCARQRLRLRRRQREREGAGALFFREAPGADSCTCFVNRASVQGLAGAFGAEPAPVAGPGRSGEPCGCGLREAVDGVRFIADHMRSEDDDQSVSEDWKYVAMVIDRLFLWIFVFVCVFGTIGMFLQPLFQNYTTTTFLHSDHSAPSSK
Method: The agonist effect in human α4β2 subtype of nicotinic acetylcholine receptors are examined by using human nicotinic acetylcholine receptors prepared in oocytes of Xenopus laevis, which is injected with cRNA from the corresponding cloning cDNA of human α4 and β2 subunits of nicotinic acetylcholine receptors, and to measure the expression of the electric response by adding the test compounds to perfusion solution by means of membrane potential holding method.
Agonist Activities at Human α4β2 Subtype of Nicotinic Acetylcholine Receptors
(1) Preparation of cRNA of Human α4β2 Subtype of Nicotinic Acetylcholine Receptors
The obtained hnACh-R α4 cDNA and hnACh-R β2 cDNA were inserted to the cRNA expression vector (pSP64 polyA) having SP6 RNA promoter to construct hnACh-R α4/pSP64 polyA and hnACh-R β2/pSP64 polyA, respectively. After cutting from expression vector by restriction enzyme (EcoRI), transcription was performed by affecting SP6 RNA polymerase in the presence of cap analogues to obtain hnACh-R α4 cRNA and hnACh-R β2 cRNA, respectively.
(2) Expression of Human α4β2 Subtype Nicotinic Acetylcholine Receptors in Xenopus Oocytes
Oocytes were purchased from Kitanihonseibutsukyohzai Co., Ltd., which were already enucleated from Xenopus laevis, and used in this experiment.
The oocytes were treated with collagenase (Sigma type I; 1 mg/ml) in calcium-free modified Birth's solution (88 mM of NaCl, 1 mM of KCl, 2.4 mM of NaHCO3, 0.82 mM of MgSO4, 15 mM of HEPES, pH 7.6) under gently stirring at room temperature for 90 minutes, and washed out the enzyme from the tissue. Then, oocytes were separated from ovarian follicle by tweezers, and isolated oocytes were placed in antibiotics containing modified Birth's solution (88 mM of NaCl, 1 mM of KCl, 2.4 mM of NaHCO3, 0.82 mM of MgSO4, 15 mM of HEPES, pH 7.6, and 0.1 v/v % of mixture solution containing of penicillin and streptomycin for incubation; Sigma Co.). […] In oocytes, heterogeneous quintuple [(α4)2(β2)3] was composed by translation of injected cRNAs, and ion channel receptors were constructed on cell membrane.
(3) Agonist Activities at Human α4β2 Subtype of Nicotinic Acetylcholine Receptors
The recordings of responses at human α4β2 subtype of nicotinic acetylcholine receptors by means of membrane potential holding method were performed as follow. […] Test compounds were added to the perfusion solution, and recorded the peak strength of induced inward current. In order to normalize the responses of test compounds, the responses with acetylcholine (Ach) were recorded before and after application of the test compounds. Generally in the oocytes just after isolated, the response of intrinsic muscarinic acetylcholine receptors, which is inward current caused by activation of calcium dependence chloride ion channels with increase of the intracellular calcium concentration by stimulation of receptors, is observed. […] Therefore, the responses observed in oocytes with injection of hnACh-R α4 cRNA and hnACh-R β2 cRNA, i.e., the inward current induced by the intracellular influx of sodium ion according to the stimulation of receptors, would be the freshly observed responses of human α4β2 subtype nicotinic acetylcholine receptors.

Sequence of α1β1γδ subtype of nicotinic acetylcholine receptors (P25109 24-501): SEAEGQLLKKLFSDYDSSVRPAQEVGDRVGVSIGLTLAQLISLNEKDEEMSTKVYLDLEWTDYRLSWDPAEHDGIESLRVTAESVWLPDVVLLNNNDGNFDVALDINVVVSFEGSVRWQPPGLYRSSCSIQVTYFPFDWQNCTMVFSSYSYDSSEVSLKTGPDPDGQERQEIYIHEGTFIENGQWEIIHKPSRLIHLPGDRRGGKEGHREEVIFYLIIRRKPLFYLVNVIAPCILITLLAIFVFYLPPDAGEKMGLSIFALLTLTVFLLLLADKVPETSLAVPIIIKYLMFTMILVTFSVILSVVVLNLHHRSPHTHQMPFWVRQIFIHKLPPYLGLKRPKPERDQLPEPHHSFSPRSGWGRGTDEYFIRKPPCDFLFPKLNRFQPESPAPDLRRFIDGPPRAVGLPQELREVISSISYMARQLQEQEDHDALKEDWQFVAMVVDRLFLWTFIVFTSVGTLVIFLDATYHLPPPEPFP
Sequence of α1β1γδ subtype of nicotinic acetylcholine receptors (P25110 22-517): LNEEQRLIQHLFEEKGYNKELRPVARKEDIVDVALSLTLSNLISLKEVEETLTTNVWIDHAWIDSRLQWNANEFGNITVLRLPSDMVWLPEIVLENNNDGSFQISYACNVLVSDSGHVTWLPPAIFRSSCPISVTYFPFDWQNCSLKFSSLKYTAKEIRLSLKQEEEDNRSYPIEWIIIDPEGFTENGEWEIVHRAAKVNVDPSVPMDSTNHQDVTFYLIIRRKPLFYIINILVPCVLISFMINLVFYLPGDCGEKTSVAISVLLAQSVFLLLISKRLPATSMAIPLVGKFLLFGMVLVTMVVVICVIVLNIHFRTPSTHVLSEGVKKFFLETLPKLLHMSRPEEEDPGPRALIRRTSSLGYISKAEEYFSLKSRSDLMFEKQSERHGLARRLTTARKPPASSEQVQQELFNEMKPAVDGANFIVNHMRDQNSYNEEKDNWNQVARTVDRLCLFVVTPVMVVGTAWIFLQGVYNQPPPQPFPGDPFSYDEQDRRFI
Sequence of α1β1γδ subtype of nicotinic acetylcholine receptors (P25108 21-457): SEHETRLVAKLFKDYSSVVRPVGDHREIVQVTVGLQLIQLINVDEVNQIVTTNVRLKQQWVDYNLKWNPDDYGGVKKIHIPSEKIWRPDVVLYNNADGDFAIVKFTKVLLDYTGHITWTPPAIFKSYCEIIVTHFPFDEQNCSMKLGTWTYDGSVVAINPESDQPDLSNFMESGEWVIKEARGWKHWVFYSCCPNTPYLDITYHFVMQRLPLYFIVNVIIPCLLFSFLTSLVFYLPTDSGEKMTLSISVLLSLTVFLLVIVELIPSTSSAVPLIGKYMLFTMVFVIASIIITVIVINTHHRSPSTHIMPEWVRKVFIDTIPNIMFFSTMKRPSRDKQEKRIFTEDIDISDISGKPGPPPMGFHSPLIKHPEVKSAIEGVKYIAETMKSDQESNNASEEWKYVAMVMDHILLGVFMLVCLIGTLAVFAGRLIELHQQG

| Structure (SMILES) | remaining activity at 100 µM [1] [%] | remaining activity at 1000 µM [1] [%] | EC50 [2] [µM] | Agonist activity: control % by response at 100 μM of the test compound ([2]; 100 μM test compound, relative to 10 μM acetylcholine (100%)) |
| --- | --- | --- | --- | --- |
| Clc1ccc(C2=NCCCN2)cn1 [Compound 2, 2-(6-chloro-3-pyridyl)-1,4,5,6-tetrahydropyrimidine] | 34 | 6 | 3.4 | – |
| Clc1ncc(C2=NCCCN2)s1 [Compound 22, 2-(2-chloro-5-thiazolyl)-1,4,5,6-tetrahydropyrimidine] | 23 | -4 | – | (13.2%) |
| CN1CCN=C1c1ccc(Cl)nc1 [Compound 3, 2-(6-chloro-3-pyridyl)-1-methyl-2-imidazoline] | 34 | 5 | 43.8 | – |
